From patent US20240209028A1, “CNP COMPOUNDS” (priority 2022, published 2024)
Starred links: 1 amine or outer side, 2 acyl side, 3 side chain; linkers in the order of their positions; H or OH if unused. Positions of bridges follow the written chain, without caps; N, C: chain ends. Residues, ends and D or L forms follow the SMILES beside them. *: point of attachment. C18 diacid = O=C(O)CCCCCCCCCCCCCCCCC(=O)*; γGlu = O=C(O)[C@H](CCC(=O)[*:2])N[*:1]; X1 = O=C(CCCCCCCCCCCCCCCCc1nnn[nH]1)*; AEEA = NCCOCCOCC(=O)O

These compounds were tested against T1, human natriuretic peptide receptor 2 (hNPR2) (Homo sapiens, UniProt P20594) (assay: In vitro hNPR2 activity assay (cGMP GloSensor reporter, HEK293)). Conditions: potency relative to CNP22 (0065).
T1 construct: expressed in transfected cells; host or cells: HEK293 (ATCC CRL-1573), clone 35, co-transfected with pGloSensor-42F
T1 sequence (P20594 23-1047): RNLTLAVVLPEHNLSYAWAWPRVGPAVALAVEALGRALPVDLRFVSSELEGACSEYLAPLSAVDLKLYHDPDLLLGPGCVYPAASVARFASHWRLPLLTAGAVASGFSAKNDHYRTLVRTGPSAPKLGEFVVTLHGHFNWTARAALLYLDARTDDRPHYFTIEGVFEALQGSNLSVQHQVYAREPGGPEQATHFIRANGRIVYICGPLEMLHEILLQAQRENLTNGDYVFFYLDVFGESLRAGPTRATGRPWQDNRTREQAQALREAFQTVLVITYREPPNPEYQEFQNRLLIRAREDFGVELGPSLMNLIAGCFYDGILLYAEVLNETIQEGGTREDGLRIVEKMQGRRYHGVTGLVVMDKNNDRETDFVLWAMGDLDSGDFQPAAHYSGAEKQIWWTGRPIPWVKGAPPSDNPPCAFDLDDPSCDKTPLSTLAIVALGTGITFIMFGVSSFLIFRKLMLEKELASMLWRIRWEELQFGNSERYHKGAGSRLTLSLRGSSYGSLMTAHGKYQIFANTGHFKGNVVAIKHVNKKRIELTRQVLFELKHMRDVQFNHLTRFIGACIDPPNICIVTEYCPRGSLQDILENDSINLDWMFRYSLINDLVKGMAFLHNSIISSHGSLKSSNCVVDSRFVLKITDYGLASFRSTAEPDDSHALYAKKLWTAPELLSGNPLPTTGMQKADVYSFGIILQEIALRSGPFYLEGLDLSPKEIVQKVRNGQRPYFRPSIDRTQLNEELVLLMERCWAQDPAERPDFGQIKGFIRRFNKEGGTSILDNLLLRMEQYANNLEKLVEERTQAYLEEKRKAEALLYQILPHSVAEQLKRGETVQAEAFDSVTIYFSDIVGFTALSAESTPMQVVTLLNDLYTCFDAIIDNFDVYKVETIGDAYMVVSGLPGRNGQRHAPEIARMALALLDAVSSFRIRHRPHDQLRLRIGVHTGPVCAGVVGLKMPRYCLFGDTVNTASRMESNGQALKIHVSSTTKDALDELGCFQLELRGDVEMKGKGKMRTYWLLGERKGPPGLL
Format: cell-based
Outline: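 Potency is the EC50 from a four-parameter logistic fit, also expressed relative to the in-plate CNP22 control (×100), with at least two replicates. Compounds (ten concentrations, […], HSA-free diluent with 1% OVA, 0.01% Tween20) were incubated 30 min at 37 °C on HEK293 cells co-expressing hNPR2 and a GloSensor cGMP luciferase. Luminescence detected with Bright-Glo.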
In the case of `CC[C@H](C)[C@@H]1NC(=O)[C@H](CCCNC(=N)N)NC(=O)[C@H](CC(=O)O)NC(=O)[C@H](CC(C)C)NC(=O)[C@@H]2CCCN2C(=O)[C@H](CC(C)C)NC(=O)CNC(=O)[C@H](Cc2ccccc2)NC(=O)[C@@H](NC(=O)CNC(=O)[C@H](CCC(N)=O)NC(=O)[C@H](CO)NC(=O)[C@H](CC(C)C)NC(=O)CNC(=O)[C@H](CO)NC(=O)[C@H](CCCCN)NC(=O)[C@H](CCC(N)=O)NC(=O)[C@H](C)NC(=O)CNC(=O)[C@H](Cc2c[nH]cn2)NC(=O)[C@H](Cc2ccc(O)cc2)NC(=O)[C@H](CCCCN)NC(=O)[C@H](CCCNC(=N)N)NC(=O)[C@H](C)NC(=O)COCCOCCNC(=O)COCCOCCNC(=O)CC[C@H](NC(=O)CC[C@H](NC(=O)CCCCCCCCCCCCCCCCc2nnn[nH]2)C(=O)O)C(=O)O)CSSC[C@@H](C(=O)O)NC(=O)CNC(=O)[C@H](CC(C)C)NC(=O)CNC(=O)[C@H](CO)NC(=O)[C@H](CC(C)C)NC(=O)[C@H](CO)NC(=O)CNC1=O` [compound 1426] ({X1-γGlu-γGlu-AEEA-AEEA}-ARKYHGAQKSGLSQGCFGLPLDRIGSLSGLGC-OH; disulfide 16-32), the “hNPR2 0% HSA. [EC50% rel CNP]” value was 76.2%.
`CC[C@H](C)[C@@H]1NC(=O)[C@H](CCCNC(=N)N)NC(=O)[C@H](CC(=O)O)NC(=O)[C@H](CC(C)C)NC(=O)[C@@H]2CCCN2C(=O)[C@H](CC(C)C)NC(=O)CNC(=O)[C@H](Cc2ccccc2)NC(=O)[C@@H](NC(=O)CNC(=O)[C@H](CCC(N)=O)NC(=O)[C@H](CO)NC(=O)[C@H](CC(C)C)NC(=O)CNC(=O)[C@H](CCCCN)NC(=O)[C@H](CCCCN)NC(=O)[C@H](CCC(N)=O)NC(=O)[C@H](C)NC(=O)CNC(=O)[C@H](CCCCN)NC(=O)[C@H](Cc2ccc(O)cc2)NC(=O)[C@H](CCCCN)NC(=O)[C@H](CCCNC(=N)N)NC(=O)[C@H](C)NC(=O)[C@H](CCC(N)=O)NC(=O)[C@@H]2CCCN2C(=O)[C@H](Cc2c[nH]cn2)NC(=O)[C@H](CCC(=O)O)NC(=O)[C@H](CCC(N)=O)NC(=O)COCCOCCNC(=O)COCCOCCNC(=O)CC[C@H](NC(=O)CC[C@H](NC(=O)CC[C@H](NC(=O)CC[C@H](NC(=O)CC[C@H](NC(=O)CC[C@H](NC(=O)CCCCCCCCCCCCCCCCC(=O)O)C(=O)O)C(=O)O)C(=O)O)C(=O)O)C(=O)O)C(=O)O)CSSC[C@@H](C(=O)O)NC(=O)CNC(=O)[C@H](CC(C)C)NC(=O)CNC(=O)[C@H](CO)NC(=O)[C@H](CC(C)C)NC(=O)[C@H](CO)NC(=O)CNC1=O` [compound 1402] ({C18 diacid-γGlu-γGlu-γGlu-γGlu-γGlu-γGlu-AEEA-AEEA}-QEHPQARKYKGAQKKGLSQGCFGLPLDRIGSLSGLGC-OH; disulfide 21-37) was tested, and the “hNPR2 0% HSA. [EC50% rel CNP]” value was 57.6%.
In the case of `CC[C@H](C)[C@@H]1NC(=O)[C@H](CCCNC(=N)N)NC(=O)[C@H](CC(=O)O)NC(=O)[C@H](CC(C)C)NC(=O)[C@@H]2CCCN2C(=O)[C@H](CC(C)C)NC(=O)CNC(=O)[C@H](Cc2ccccc2)NC(=O)[C@@H](NC(=O)CNC(=O)[C@H](CCC(N)=O)NC(=O)[C@H](CO)NC(=O)[C@H](CO)NC(=O)CNC(=O)[C@H](CCCCN)NC(=O)[C@H](CCCCN)NC(=O)[C@H](CCC(N)=O)NC(=O)[C@H](C)NC(=O)CNC(=O)[C@@H]2CCCN2C(=O)[C@H](C)NC(=O)[C@H](CCC(N)=O)NC(=O)CNC(=O)[C@@H]2CCCN2C(=O)[C@H](C)NC(=O)[C@H](CCC(N)=O)NC(=O)CNC(=O)[C@@H]2CCCN2C(=O)[C@H](C)NC(=O)[C@H](CCC(N)=O)NC(=O)CNC(=O)COCCOCCNC(=O)COCCOCCNC(=O)CC[C@H](NC(=O)CCCCCCCCCCCCCCCCC(=O)O)C(=O)O)CSSC[C@@H](C(=O)O)NC(=O)CNC(=O)[C@H](CC(C)C)NC(=O)CNC(=O)[C@H](CO)NC(=O)[C@H](CC(C)C)NC(=O)[C@H](CO)NC(=O)CNC1=O` [compound 1457] ({C18 diacid-γGlu-AEEA-AEEA}-GQAPGQAPGQAPGAQKKGSSQGCFGLPLDRIGSLSGLGC-OH; disulfide 23-39), the “hNPR2 0% HSA. [EC50% rel CNP]” value was 79.4%.
For `CC[C@H](C)[C@@H]1NC(=O)[C@H](CCCNC(=N)N)NC(=O)[C@H](CC(=O)O)NC(=O)[C@H](CC(C)C)NC(=O)[C@@H]2CCCN2C(=O)[C@H](CC(C)C)NC(=O)CNC(=O)[C@H](Cc2ccccc2)NC(=O)[C@@H](NC(=O)CNC(=O)[C@H](CO)NC(=O)[C@H](CO)NC(=O)[C@@H](NC(=O)CNC(=O)[C@H](CCCCN)NC(=O)[C@H](CCCCN)NC(=O)[C@H](CCC(N)=O)NC(=O)[C@H](C)NC(=O)CNC(=O)[C@H](Cc2c[nH]cn2)NC(=O)[C@H](Cc2ccc(O)cc2)NC(=O)[C@H](CCCCN)NC(=O)[C@H](CCCNC(=N)N)NC(=O)[C@H](C)NC(=O)COCCOCCNC(=O)COCCOCCNC(=O)CC[C@H](NC(=O)CC[C@H](NC(=O)CC[C@H](NC(=O)CCCCCCCCCCCCCCCCC(=O)O)C(=O)O)C(=O)O)C(=O)O)C(C)C)CSSC[C@@H](C(=O)O)NC(=O)CNC(=O)[C@H](CC(C)C)NC(=O)CNC(=O)[C@H](CO)NC(=O)[C@H](CC(C)C)NC(=O)[C@H](CO)NC(=O)CNC1=O` [compound 1422] ({C18 diacid-γGlu-γGlu-γGlu-AEEA-AEEA}-ARKYHGAQKKGVSSGCFGLPLDRIGSLSGLGC-OH; disulfide 16-32), the “hNPR2 0% HSA. [EC50% rel CNP]” value was 75.3%.
`CC[C@H](C)[C@@H]1NC(=O)[C@H](CCCNC(=N)N)NC(=O)[C@H](CC(=O)O)NC(=O)[C@H](CC(C)C)NC(=O)[C@@H]2CCCN2C(=O)[C@H](CC(C)C)NC(=O)CNC(=O)[C@H](Cc2ccccc2)NC(=O)[C@@H](NC(=O)CNC(=O)[C@H](CCC(N)=O)NC(=O)[C@H](CO)NC(=O)[C@H](CC(C)C)NC(=O)CNC(=O)[C@H](CCCCN)NC(=O)[C@H](CCCCN)NC(=O)[C@H](CCC(N)=O)NC(=O)[C@H](C)NC(=O)CNC(=O)[C@H](CCCCN)NC(=O)[C@H](Cc2ccc(O)cc2)NC(=O)COCCOCCNC(=O)COCCOCCNC(=O)COCCOCCNC(=O)COCCOCCNC(=O)CC[C@H](NC(=O)CC[C@H](NC(=O)CCCCCCCCCCCCCCCCC(=O)O)C(=O)O)C(=O)O)CSSC[C@@H](C(=O)O)NC(=O)CNC(=O)[C@H](CC(C)C)NC(=O)CNC(=O)[C@H](CO)NC(=O)[C@H](CC(C)C)NC(=O)[C@H](CO)NC(=O)CNC1=O` [compound 1478] ({C18 diacid-γGlu-γGlu-AEEA-AEEA-AEEA-AEEA}-YKGAQKKGLSQGCFGLPLDRIGSLSGLGC-OH; disulfide 13-29; C-terminus assumed) was tested, and the “hNPR2 0% HSA. [EC50% rel CNP]” value was 26.6%.
With `CC[C@H](C)[C@@H]1NC(=O)[C@H](CCCNC(=N)N)NC(=O)[C@H](CC(=O)O)NC(=O)[C@H](CC(C)C)NC(=O)[C@@H]2CCCN2C(=O)[C@H](CC(C)C)NC(=O)CNC(=O)[C@H](Cc2ccccc2)NC(=O)[C@@H](NC(=O)CNC(=O)[C@H](CO)NC(=O)[C@H](CO)NC(=O)[C@H](CC(C)C)NC(=O)CNC(=O)[C@H](CCCCN)NC(=O)[C@H](CCCCN)NC(=O)[C@H](CCC(N)=O)NC(=O)[C@H](C)NC(=O)CNC(=O)[C@H](CCCCN)NC(=O)[C@H](Cc2ccc(O)cc2)NC(=O)[C@H](CCCCN)NC(=O)[C@H](CCCNC(=N)N)NC(=O)[C@H](C)NC(=O)[C@H](CCC(N)=O)NC(=O)[C@@H]2CCCN2C(=O)[C@H](Cc2c[nH]cn2)NC(=O)[C@H](CCC(=O)O)NC(=O)[C@H](CCC(N)=O)NC(=O)CC[C@H](NC(=O)CC[C@H](NC(=O)CC[C@H](NC(=O)CC[C@H](NC(=O)CC[C@H](NC(=O)CCCCCCCCCCCCCCCCC(=O)O)C(=O)O)C(=O)O)C(=O)O)C(=O)O)C(=O)O)CSSC[C@@H](C(=O)O)NC(=O)CNC(=O)[C@H](CC(C)C)NC(=O)CNC(=O)[C@H](CO)NC(=O)[C@H](CC(C)C)NC(=O)[C@H](CO)NC(=O)CNC1=O` [compound 9482] ({C18 diacid-γGlu-γGlu-γGlu-γGlu-γGlu}-QEHPQARKYKGAQKKGLSSGCFGLPLDRIGSLSGLGC-OH; disulfide 21-37) the “hNPR2 0% HSA. [EC50% rel CNP]” value was 39.4%.
